Measured values as given in ChEMBL document CHEMBL1123130 (J Med Chem, 1985).

Biological target: T1, Progesterone receptor (Oryctolagus cuniculus, UniProt P06186)
T1 sequence (P06186 whole entry): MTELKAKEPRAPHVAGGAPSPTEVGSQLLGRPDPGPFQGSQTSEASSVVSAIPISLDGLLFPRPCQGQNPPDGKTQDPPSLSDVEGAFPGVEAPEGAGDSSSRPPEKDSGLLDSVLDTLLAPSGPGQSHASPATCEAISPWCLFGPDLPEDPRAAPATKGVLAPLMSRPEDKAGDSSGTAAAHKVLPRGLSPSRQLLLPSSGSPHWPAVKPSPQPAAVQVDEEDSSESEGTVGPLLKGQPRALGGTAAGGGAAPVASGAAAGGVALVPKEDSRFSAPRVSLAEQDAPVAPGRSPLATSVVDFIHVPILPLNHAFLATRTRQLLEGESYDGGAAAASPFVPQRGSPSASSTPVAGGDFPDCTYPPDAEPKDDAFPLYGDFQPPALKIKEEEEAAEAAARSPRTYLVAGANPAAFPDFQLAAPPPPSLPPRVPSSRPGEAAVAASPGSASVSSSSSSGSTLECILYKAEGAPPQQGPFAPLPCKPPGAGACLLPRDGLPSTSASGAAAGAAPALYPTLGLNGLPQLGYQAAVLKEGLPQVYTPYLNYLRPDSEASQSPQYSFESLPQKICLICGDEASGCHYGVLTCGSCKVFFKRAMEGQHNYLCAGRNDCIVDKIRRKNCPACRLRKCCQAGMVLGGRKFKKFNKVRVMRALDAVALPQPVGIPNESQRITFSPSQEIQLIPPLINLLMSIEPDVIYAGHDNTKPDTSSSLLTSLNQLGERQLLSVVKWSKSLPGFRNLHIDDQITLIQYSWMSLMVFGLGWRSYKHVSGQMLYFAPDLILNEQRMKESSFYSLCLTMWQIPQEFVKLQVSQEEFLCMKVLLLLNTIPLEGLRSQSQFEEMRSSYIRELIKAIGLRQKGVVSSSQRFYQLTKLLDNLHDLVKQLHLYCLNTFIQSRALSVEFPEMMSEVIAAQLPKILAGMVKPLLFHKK
Assay: Inhibition of [3H]R5020 binding to rabbit uterine progesterone receptor

SMILES | Ki [nM]
C=C(I)C1(O)CCC2C3CCC4=CC(=O)CCC4C3CCC21C (centres undefined) | 80.1
CC12CCC3C4CCC(=O)C=C4CCC3C1CCC2(O)/C=C\I (centres undefined) | 4.26
CC12CCC3C4CCC(=O)C=C4CCC3C1CCC2(O)/C=C/I (centres undefined) | 1.81
CC12CCC3C4CCC(=O)C=C4CCC3C1C[C@@H](I)C2O (some centres undefined) | 39.8
